Reference: PubChem BioAssay AID330 (DTP/NCI, 2004)
Where “and” joins values, the source holds several entries; their conditions need not be identical. Equal entries are not always repeated. Toxic doses and inconclusive results are not listed. How the source made its calls: active means survival T/C of 150% or more; inactive means T/C below 125% in these data.

System: P388 leukemia ip, CD2F1 mice, survival T/C
Experiment: NCI In Vivo Anticancer Drug Screen. Data for tumor model P388 Leukemia (intraperitoneal) in CD2F1 (CDF1) mice
Settings: endpoint: median survival time, higher = longer survival
How it was run: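 Mice carrying the transplanted tumor received test compound or vehicle. Survival was recorded in each group, and the value is the treated-group measurement divided by that of the vehicle-treated control group.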

[1] = dose: 50.0 mg/kg/injection, schedule: Q01DX009 (ip), vehicle: Klucel (hydroxypropylcellulose) (HPC)
[2] = dose: 100.0 mg/kg/injection, schedule: Q01DX009 (ip), vehicle: Klucel (hydroxypropylcellulose) (HPC)
[3] = dose: 200.0 mg/kg/injection, schedule: Q01DX009 (ip), vehicle: Klucel (hydroxypropylcellulose) (HPC)

Measured: T/C

CC(C)n1c(=O)nc(-c2ccccc2)c2cc3c(cc21)OCO3
inactive: [1] 106 % of control | [2] 108 % of control | [3] 91 % of control

CCN(CC)c1ccc(C(C#N)(c2ccc(N(CC)Cc3cccc(S(=O)(=O)O)c3)cc2)c2ccc(N(CC)Cc3cccc(S(=O)(=O)O)c3)cc2)cc1
inactive: dose: 72.0 mg/kg/injection, schedule: Q01DX001 (ip), vehicle: saline with Tween-80 98 % of control and 102 % of control | dose: 72.0 mg/kg/injection, schedule: Q01DX005 (ip), vehicle: saline with Tween-80 99 % of control | dose: 120.0 mg/kg/injection, schedule: Q01DX001 (ip), vehicle: saline with Tween-80 104 % of control and 92 % of control | dose: 120.0 mg/kg/injection, schedule: Q01DX005 (ip), vehicle: saline with Tween-80 92 % of control | dose: 200.0 mg/kg/injection, schedule: Q01DX001 (ip), vehicle: saline with Tween-80 90 % of control and 96 % of control | dose: 200.0 mg/kg/injection, schedule: Q01DX005 (ip), vehicle: saline with Tween-80 98 % of control

COC(=O)c1ccccc1N=Nc1ccc(N(CCCl)CCCl)cc1
inactive: dose: 50.0 mg/kg/injection, schedule: Q01DX001 (ip), vehicle: Klucel (hydroxypropylcellulose) (HPC) 112 % of control | dose: 100.0 mg/kg/injection, schedule: Q01DX001 (ip), vehicle: Klucel (hydroxypropylcellulose) (HPC) 108 % of control | dose: 200.0 mg/kg/injection, schedule: Q01DX001 (ip), vehicle: Klucel (hydroxypropylcellulose) (HPC) 113 % of control

O=C1C=CC(=O)N1c1ccc2c(c1)oc(=O)c1ccccc12
inactive: dose: 12.5 mg/kg/injection, schedule: Q01DX009 (ip), vehicle: saline 95 % of control | dose: 25.0 mg/kg/injection, schedule: Q01DX009 (ip), vehicle: saline 92 % of control | dose: 50.0 mg/kg/injection, schedule: Q01DX009 (ip), vehicle: saline 90 % of control | dose: 100.0 mg/kg/injection, schedule: Q01DX009 (ip), vehicle: saline 100 % of control | dose: 200.0 mg/kg/injection, schedule: Q01DX009 (ip), vehicle: saline 99 % of control | dose: 400.0 mg/kg/injection, schedule: Q01DX009 (ip), vehicle: saline 110 % of control

[NH-]NC(=S)[S-].[NH-]NC(=S)[S-].[Pt+4]
inactive: dose: 12.5 mg/kg/injection, schedule: Q04DX003 (ip), vehicle: Klucel (hydroxypropylcellulose) (HPC) 103 % of control | dose: 25.0 mg/kg/injection, schedule: Q04DX003 (ip), vehicle: Klucel (hydroxypropylcellulose) (HPC) 100 % of control | dose: 50.0 mg/kg/injection, schedule: Q04DX003 (ip), vehicle: Klucel (hydroxypropylcellulose) (HPC) 109 % of control

COCN(C)N=Nc1ccc(C(C)=O)cc1
inactive: dose: 50.0 mg/kg/injection, schedule: Q01DX005 (ip), vehicle: Klucel (hydroxypropylcellulose) (HPC) 100 % of control | dose: 100.0 mg/kg/injection, schedule: Q01DX005 (ip), vehicle: Klucel (hydroxypropylcellulose) (HPC) 104 % of control | dose: 200.0 mg/kg/injection, schedule: Q01DX005 (ip), vehicle: Klucel (hydroxypropylcellulose) (HPC) 121 % of control

Cc1cccc(NC(=S)/N=C(\SCc2ccccc2)N(C)c2ccccc2)c1
inactive: dose: 50.0 mg/kg/injection, schedule: Q01DX005 (ip), vehicle: saline with Tween-80 90 % of control | dose: 100.0 mg/kg/injection, schedule: Q01DX005 (ip), vehicle: saline with Tween-80 93 % of control

COc1cc2cc(c1Cl)N(C)C(=O)CC(OC(=O)CC(C)C)C1(C)OC1C(C)C1CC(O)(NC(=O)O1)C(OC)/C=C/C=C(C)C2 (configuration not stated)
inactive: dose: 6.2 micrograms/kg/injection, schedule: Q01DX009 (ip), vehicle: saline + alcohol 113 % of control | dose: 6.25 micrograms/kg/injection, schedule: Q01DX009 (ip), vehicle: saline + alcohol 111 % of control and 120 % of control | dose: 100.0 micrograms/kg/injection, schedule: Q01DX009 (ip), vehicle: saline + alcohol 106 % of control

CC(C)N(Cc1ccccc1)C(=O)Nc1ccc(Cc2ccc(NC(=O)N(Cc3ccccc3)C(C)C)cc2)cc1
inactive: [1] 90 % of control | [2] 96 % of control | [3] 93 % of control

COc1cc2c(cc1OC)C1=C(CC2)C2CCCN2CC1 (configuration not stated)
inactive: dose: 12.5 mg/kg/injection, schedule: Q04DX003 (ip), vehicle: saline 104 % of control | dose: 25.0 mg/kg/injection, schedule: Q04DX003 (ip), vehicle: saline 100 % of control

CC(=O)C(=N/O)/C(C)=N/NC(=O)c1ccncc1
inactive: dose: 100.0 mg/kg/injection, schedule: Q04DX002 (ip), vehicle: saline 106 % of control | dose: 200.0 mg/kg/injection, schedule: Q04DX002 (ip), vehicle: saline 103 % of control | dose: 400.0 mg/kg/injection, schedule: Q04DX002 (ip), vehicle: saline 102 % of control

CN(C)CCCN1CN(CCCN(C)C)CN(CCCN(C)C)C1
inactive: dose: 50.0 mg/kg/injection, schedule: Q01DX005 (ip), vehicle: saline 99 % of control | dose: 100.0 mg/kg/injection, schedule: Q01DX005 (ip), vehicle: saline 103 % of control

CCOC(=O)NC1CCc2ccccc2C1 (configuration not stated)
inactive: dose: 100.0 mg/kg/injection, schedule: Q04DX003 (ip), vehicle: Klucel (hydroxypropylcellulose) (HPC) 98 % of control | dose: 200.0 mg/kg/injection, schedule: Q04DX003 (ip), vehicle: Klucel (hydroxypropylcellulose) (HPC) 108 % of control | dose: 400.0 mg/kg/injection, schedule: Q04DX003 (ip), vehicle: Klucel (hydroxypropylcellulose) (HPC) 95 % of control
